The values that follow come from patent US11031562B2, “Metal complexes” (Merck Patent GmbH, priority 2015, dated 2021).

Molecules are shown by their SMILES.

Assay type in all cases: physicochemical
Data set [1] can be described thus: Thermal stability: thermal storage at 360° C. for 7 days, checked by 1H NMR.
The nature of data set [2]: Photostability in anhydrous C6D6 solution under irradiation with light of about 455 nm, checked by 1H NMR. As to conditions: irradiation with light of wavelength about 455 nm.
The nature of data set [3]: Photoluminescence in solution (PL-max., PL quantum efficiency). The following applies: solvent toluene; room temperature, degassed solution.
A short description of data set [4]: Oxidation and reduction potentials by CV (HOMO, LUMO). As to conditions: in eV (unit assumed); for HOMO: Ox. in DCM; for LUMO: Red. in THF.

For the compound `O=C1Oc2cc3cc(c2)OC(=O)c2ccc4[c](c2)[Ir-3]25([c]6cc1ccc6-c1cccc[n+]12)([c]1cc(ccc1-c1cccc[n+]15)C(=O)O3)[n+]1ccccc1-4` [Ir(L200)], in data set [1], the Therm. stab. entry is listed as “no decomp”. Also, in data set [2], the Photo. stab. entry is on record as “no decomp”. For the same compound, in data set [3], the PL-max. stood at 552 and the PLQE is listed as 0.94. In data set [4], the HOMO is −5.66 and the LUMO is −2.64.
In data set [3], `c1ccc(-c2cc(-c3ccccc3)cc(-c3cccc(-c4cc[c]5c(c4)-c4cccc[n+]4[Ir-3]546([c]5ccc(-c7cccc(-c8cc(-c9ccccc9)cc(-c9ccccc9)c8)c7)cc5-c5cccc[n+]54)[c]4ccc(-c5cccc(-c7cc(-c8ccccc8)cc(-c8ccccc8)c7)c5)cc4-c4cccc[n+]46)c3)c2)cc1` [Ir1, reference compound] yielded a PL-max. of 513 and a PLQE of 0.97. In data set [4], this compound had an HOMO of −5.09 and an LUMO of −1.99.
Regarding `Cc1cc2[n+](cc1-c1ccccc1)[Ir-3]13([c]4ccccc4-c4cccc[n+]41)([c]1ccccc1-c1cccc[n+]13)[c]1ccccc1-2` [Ir2, reference compound], in data set [1], the Therm. stab. result is “decomposition”. Also, the Photo. stab. result in data set [2] is given as “decomposition”. In data set [3], this compound came in with a PL-max. of 516 and a PLQE of 0.97. Further, in data set [4], the HOMO is −5.05 and the LUMO is recorded as −1.71.
Take `CN1C(=O)c2ccc3[c](c2)[Ir-3]245([c]6cc(ccc6-c6cccc[n+]62)C(=O)N(C)c2cc1cc(c2)N(C)C(=O)c1ccc([c]4c1)-c1cccc[n+]15)[n+]1ccccc1-3` [Ir(L300)]: the Therm. stab. entry in data set [1] is listed as “no decomp”. Moreover, the Photo. stab. result in data set [2] is recorded as “no decomp”. Also, in data set [3], the PL-max. came out at 539 and the PLQE is reported as 0.95. For the same compound, in data set [4], the HOMO is on record as −5.34 and the LUMO is reported as −2.29.
